Read-outs that look alike come from different tables or passages of the source.

As usually defined, the % Inhibition is the share of the control response that was lost under treatment. A low value points to a weak effect.

This assay has as its target T1, rat PTP1 (Rattus norvegicus, UniProt P20417).
T1 construct: a C-terminal truncation of rat PTP1 (amino acid residues 1-322); GST (N, cleaved yes); made in house; host or cells: E. coli strain TG-1 (pGEX-2T)
T1 sequence (P20417 1-322): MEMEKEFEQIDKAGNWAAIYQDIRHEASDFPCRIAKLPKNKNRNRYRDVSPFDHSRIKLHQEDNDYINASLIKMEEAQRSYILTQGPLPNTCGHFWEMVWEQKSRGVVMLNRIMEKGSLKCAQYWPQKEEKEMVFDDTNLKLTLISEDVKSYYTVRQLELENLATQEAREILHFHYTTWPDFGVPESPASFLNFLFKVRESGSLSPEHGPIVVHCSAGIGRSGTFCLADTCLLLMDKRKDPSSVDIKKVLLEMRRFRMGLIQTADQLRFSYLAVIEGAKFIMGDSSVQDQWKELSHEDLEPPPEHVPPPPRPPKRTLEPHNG
Put plainly: PTP1 assay, pNPP hydrolysis (rate of change in A405). Type of assay: biochemical. An excerpt: PTP1 Assays: A construct, which consisted of a C-terminal truncation of rat PTP1 (amino acid residues 1-322) (cloned from a rat brain library) with an N-terminal glutathione S-transferase (GST) tag and an adjacent thrombin cleavage site, was inserted into vector plasmid pGEX-2T and transformed into E. coli strain TG-1 under the control of a lac promoter (K. L. Guan and J. E. Dixon (1991) Eukaryotic proteins expressed in Escherichia coli: an improved thrombin cleavage and purification procedure of fusion proteins with glutathione S-transferase. Analyt. Biochem. 192: 262-267). The GST-fusion protein was purified on a glutathione agarose affinity column, the GST tag was cleaved with thrombin, and the active enzyme was recovered for use in an assay to identify PTP inhibitors.
PTP1 activity is measured using either p-nitrophenol phosphate (pNPP) or a triphosphopeptide (that matches residues 1142 through 1153 of the β-subunit and the insulin receptor) as substrate in a 96-well microtiter plate format. An assay pH of 7.2 is used for standard assays (measured 405=9800 at pH 7.2).
Standard assays are conducted at room temperature in a total volume of 0.2 ml that contains Hepes buffer (50 mM, pH 7.2), NaCl (50 mM), EDTA (1 mM), DTT (1 mM), bovine serum albumin (1 mg/ml), pNPP (1 mM) and PTP1 (35 ng/ml). Compounds (2 μl of 10 mM solutions) are pipetted into wells of microtiter plates followed by 198 μl of premixed reaction mix (with PTP1 and pNPP added immediately before use). The rate of change in A405 is recorded for 60 min. Two wells on each plate contain DMSO controls and two wells contain sodium orthovanadate (1 mM) which inhibits PTP1-catalyzed hydrolysis of pNPP completely. Data are expressed as percent inhibition relative to the average of the DMSO controls measured on the same microtiter plate.

The mark [1] stands for this setting: Conc 1 uM, pNPP hydrolysis, Table 1, read-out: PTP1 Inhib % Inhib.
The mark [2] stands for this setting: Conc 10 uM, pNPP hydrolysis, Table 1, read-out: PTP1 Inhib % Inhib.
Setting [3] is: Conc 100 uM, pNPP hydrolysis, Table 1, read-out: PTP1 Inhib % Inhib.
The mark [4] stands for this setting: Conc 1 uM, pNPP hydrolysis, Table 2, read-out: PTP1 Inhib PTP1N. % Inhib.
Where [5] appears, read: Conc 10 uM, pNPP hydrolysis, Table 2, read-out: PTP1 Inhib PTP1N. % Inhib.
Where [6] appears, read: Conc 100 uM, pNPP hydrolysis, Table 2, read-out: PTP1 Inhib PTP1N. % Inhib.
The mark [7] stands for this setting: inhibition of pNPP-hydrolysis, compound concentration 1 μM, read-out: % Inhibition.
[8] abbreviates: inhibition of pNPP-hydrolysis, compound concentration 10 μM, read-out: % Inhibition.
Where [9] appears, read: inhibition of pNPP-hydrolysis, compound concentration 100 μM, read-out: % Inhibition.

Consider `CCCCCNC(=O)C(Cc1ccc(OC(COO)COO)cc1)NC(=O)CCC(=O)OCc1ccccc1` (stereo not drawn), for which the inhibition at 1 µM under setting [1] was found to be 4%. For the same compound, under setting [2], the inhibition at 10 µM was 9%. Also, the inhibition at 100 µM under setting [3] was found to be 39%.
Take `CCCCCNC(=O)C(Cc1ccc(OC(COO)COO)cc1)NC(=O)N(Cc1ccc(CC(=O)O)cc1)Cc1cccc(C(F)(F)F)c1` (stereo not drawn): the inhibition at 1 µM under setting [4] was 4%. Also, under setting [5], the inhibition at 10 µM came out at 51%. The inhibition at 100 µM under setting [6] is 92%.
Consider `CCCCCNC(=O)C(Cc1ccc(OC(COO)COO)cc1)NC(=O)Nc1cc(C(=O)O)cc(C(=O)O)c1` (stereo not drawn), for which the inhibition at 1 µM under setting [1] was 16%. Further, the inhibition at 10 µM under setting [2] came to 64%. In addition, under setting [3], the inhibition at 100 µM is 94%.
In the case of `CCCCCNC(=O)C(Cc1ccc(OC(COO)COO)cc1)NC(=O)C(Cc1ccc(OC(C)(C)C)cc1)NC(=O)OC(C)(C)C` (stereo not drawn), the inhibition at 1 µM under setting [4] turned out to be 5%. Under setting [5], the inhibition at 10 µM was 36%. Besides, the inhibition at 100 µM under setting [6] is 89%.
As for `CCCCCNC(=O)[C@H](Cc1ccc(C=C(C(=O)O)C(=O)O)cc1)NC(=O)CCC(=O)O`, the inhibition at 1 µM under setting [1] was 3%. Besides, under setting [2], the inhibition at 10 µM came to 6%. Moreover, the inhibition at 100 µM under setting [3] came out at 33%.
As to `CC(C)OCCCNC(=O)[C@H](Cc1ccc(OCC(=O)O)c(C(=O)O)c1)NC(=O)[C@H](Cc1ccccc1)NC(=O)OC(C)(C)C` [Example 157-16, 5-{(2S)-2-({(2S)-2-[(tert-Butoxycarbonyl)amino]-3-phenylpropanoyl}amino)-3-[(3-isopropoxypropyl)amino]-3-oxopropyl}-2-(carboxymethoxy)benzoic Acid], the inhibition at 1 µM under setting [7] was 38%. The inhibition at 10 µM under setting [8] was 83%. The inhibition at 100 µM under setting [9] is 97%.
On to `CC(C)(C)OC(=O)N[C@@H](Cc1ccccc1)C(=O)N[C@@H](Cc1ccc(OCC(=O)O)c(C(=O)O)c1)C(=O)NCc1cccnc1` [Example 157-14, 5-{(2S)-2-({(2S)-2-[(tert-Butoxycarbonyl)amino]-3-phenylpropanoyl}amino)-3-oxo-3-[(3-pyridinylmethyl)amino]propyl}-2-(carboxymethoxy)benzoic Acid], for which the inhibition at 1 µM under setting [7] was 20%. Besides, the inhibition at 10 µM under setting [8] is 67%. Also, the inhibition at 100 µM under setting [9] worked out at 94%.
Consider `CCCCCNC(=O)C(Cc1ccc(OC(COO)COO)cc1)NC(=O)C(Cc1ccc(C(=O)c2ccccc2)cc1)NC(=O)CCc1ccc(O)cc1` (stereo not drawn), for which the inhibition at 1 µM under setting [4] was determined as 9%. Further, the inhibition at 10 µM under setting [5] is 47%. In addition, under setting [6], the inhibition at 100 µM amounted to 89%.
On to `CCCC[C@H](NC(=O)[C@H](Cc1ccc(OC(C(=O)O)C(=O)O)cc1)NC(=O)CCC(=O)O)C(N)=O`, for which the inhibition at 1 µM under setting [1] is 16%. Further, the inhibition at 10 µM under setting [2] was found to be 63%. The inhibition at 100 µM under setting [3] turned out to be 93%.
In the case of `O=C(O)CCC(=O)N[C@@H](Cc1ccc(OC(C(=O)O)C(=O)O)cc1)C(=O)NCCN1CCCCC1`, the inhibition at 1 µM under setting [1] came out at 0%. Moreover, under setting [2], the inhibition at 10 µM came to 2%. Also, under setting [3], the inhibition at 100 µM was determined as 23%.
As to `CCCCCNC(=O)[C@H](Cc1ccc(OC(C(=O)O)C(=O)O)cc1)NC(=O)C(CC(=O)O)NC(=O)OC(C)(C)C` (stereo partly drawn), the inhibition at 1 µM under setting [1] was 13%. Besides, the inhibition at 10 µM under setting [2] amounted to 53%. In addition, the inhibition at 100 µM under setting [3] is 90%.
In the case of `CCCCCNC(=O)[C@H](Cc1ccc(OC(C(=O)O)C(=O)O)cc1)NC(=O)[C@H](CCC(=O)O)NC(=O)CCC(=O)O`, the inhibition at 1 µM under setting [1] stood at 25%. For the same compound, under setting [2], the inhibition at 10 µM came to 76%. Moreover, the inhibition at 100 µM under setting [3] is 96%.
As to `O=C(O)COc1ccc(C[C@H](NS(=O)(=O)c2ccc(F)cc2F)C(=O)NCCCCc2ccc(Cl)cc2)cc1C(=O)O` [Example 156-1, 2-(carboxymethoxy)-5-((2S)-3-{[4-(4-chlorophenyl)butyl]amino}-2-{[(2,4-difluorophenyl)sulfonyl]amino}-3-oxopropyl)benzoic acid], the inhibition at 1 µM under setting [7] worked out at 18%. Moreover, the inhibition at 10 µM under setting [8] was found to be 69%. The inhibition at 100 µM under setting [9] amounted to 95%.
In the case of `CCCCCNC(=O)C(Cc1ccc(OCC(=O)O)c(COO)c1)NC(=O)CCC(=O)O` (stereo not drawn), the inhibition at 1 µM under setting [1] was found to be 17%. Moreover, under setting [2], the inhibition at 10 µM was 63%. Besides, the inhibition at 100 µM under setting [3] came to 93%.
As to `O=C(O)COc1ccc(C[C@H](NS(=O)(=O)c2ccccc2)C(=O)NCCCOc2ccccc2)cc1C(=O)O` [Example 156-16, 2-(carboxymethoxy)-5-{(2S)-3-oxo-3-[(3-phenoxypropyl)amino]-2-[(phenylsulfonyl)amino]propyl}benzoic acid], the inhibition at 1 µM under setting [7] was 20%. For the same compound, under setting [8], the inhibition at 10 µM stood at 72%. Moreover, the inhibition at 100 µM under setting [9] turned out to be 95%.
Turning to `CCCCCNC(=O)C(Cc1ccc(OC(COO)COO)cc1)NC(=O)C(Cc1ccc(OCc2c(Cl)cccc2Cl)cc1)NC(=O)OC(C)(C)C` (stereo not drawn), under setting [4], the inhibition at 1 µM amounted to 3%. In addition, under setting [5], the inhibition at 10 µM came out at 12%. Further, the inhibition at 100 µM under setting [6] stood at 85%.
Regarding `O=C(O)CCC(=O)NC(Cc1ccc(OC(COO)COO)cc1)C(=O)NCc1ccc(C(F)(F)F)cc1` (stereo not drawn), the inhibition at 1 µM under setting [1] amounted to 4%. The inhibition at 10 µM under setting [2] is 15%. Besides, the inhibition at 100 µM under setting [3] was found to be 66%.
On to `O=C(O)CCC(=O)NC(Cc1ccc(OC(COO)COO)cc1)C(=O)NCc1ccc(C(=O)O)cc1` (stereo not drawn), for which the inhibition at 1 µM under setting [1] came out at 3%. Further, the inhibition at 10 µM under setting [2] is 14%. In addition, the inhibition at 100 µM under setting [3] was found to be 56%.
For `O=C(O)CCC(=O)NC(Cc1ccc(OC(COO)COO)cc1)C(=O)NCc1ccc2c(c1)OCO2` (stereo not drawn), the inhibition at 1 µM under setting [1] worked out at 12%. In addition, the inhibition at 10 µM under setting [2] came to 24%. In addition, the inhibition at 100 µM under setting [3] worked out at 63%.
Regarding `CCCCCNC(=O)[C@H](Cc1ccc(OC(C(=O)O)C(=O)O)cc1)NC(=O)CC(C)(C)CC(=O)O`, the inhibition at 1 µM under setting [1] is 0%. The inhibition at 10 µM under setting [2] was 18%. The inhibition at 100 µM under setting [3] stood at 67%.
On to `CCCCCNC(=O)C(Cc1ccc(OC(COO)COO)cc1)NC(=O)Nc1ccc(C(=O)O)cc1` (stereo not drawn), for which, under setting [1], the inhibition at 1 µM worked out at 8%. Also, the inhibition at 10 µM under setting [2] is 34%. Moreover, the inhibition at 100 µM under setting [3] came out at 81%.
As to `CC(C)(C)OC(=O)N[C@@H](Cc1ccccc1)C(=O)N[C@@H](Cc1ccc(OCC(=O)O)c(C(=O)O)c1)C(=O)NCCO` [Example 157-3, 5-{(2S)-2-({(2S)-2-[(tert-Butoxycarbonyl)amino]-3-phenylpropanoyl}amino)-3-[(2-hydroxyethyl)amino]-3-oxopropyl}-2-(carboxymethoxy)benzoic], the “% Inhibition” value is, setting by setting: (inhibition of pNPP-hydrolysis, compound concentration 1 μM) 22%; (inhibition of pNPP-hydrolysis, compound concentration 10 μM) 72%; (inhibition of pNPP-hydrolysis, compound concentration 100 μM) 94%.
`O=C(O)COc1ccc(C[C@H](NC(=O)c2ccoc2)C(=O)NCCCCc2ccccc2)cc1C(=O)O` [Example 154-15, 2-(carboxymethoxy)-5-{(2S)-2-(3-furoylamino)-3-oxo-3-[(4-phenylbutyl)amino]propyl}benzoic acid]: the inhibition at 1 µM under setting [7] came out at 80%. Under setting [8], the inhibition at 10 µM amounted to 31%. For the same compound, the inhibition at 100 µM under setting [9] was determined as 97%.
As to `CCCCCNC(=O)[C@H](Cc1ccc(OC(C(=O)O)C(=O)O)cc1)NC(=O)C1CCCCC1C(=O)O` (stereo partly drawn), the inhibition at 1 µM under setting [1] stood at 3%. The inhibition at 10 µM under setting [2] is 13%. Further, under setting [3], the inhibition at 100 µM is 62%.
`CCCCCCNC(=O)[C@H](Cc1ccc(OC(C(=O)O)C(=O)O)cc1)NC(=O)CCC(=O)O`: under setting [1], the inhibition at 1 µM amounted to 3%. Besides, the inhibition at 10 µM under setting [2] worked out at 17%. Besides, the inhibition at 100 µM under setting [3] was 74%.
For `CCCCCNC(=O)C(Cc1ccc(OC(COO)COO)cc1)NC(=O)C(Cc1ccc(OCc2c(Cl)cccc2Cl)cc1)NC(=O)CCC(=O)O` (stereo not drawn), the inhibition at 1 µM under setting [4] came to 11%. Moreover, the inhibition at 10 µM under setting [5] was found to be 70%. Also, under setting [6], the inhibition at 100 µM amounted to 98%.
Taken in the same sequence, the figures for `CCCCCNC(=O)C(Cc1ccc(OC(COO)COO)cc1)NC(=O)[C@H](Cc1ccc(C(=O)c2ccccc2)cc1)NC(C)=O` (stereo partly drawn) were 9%, 42% and 87%.

Values taken from patent US6410585B1, “Inhibitors of protein tyrosine phosphatase” (priority 1997, dated 2002).
